The series has as its system HeLa cells. The series is classed as cell-based. The method, then:
We first evaluated cell toxicity of Pep-MD. Specifically, we quantified HeLa cell viability using CellTiter-Glo® Luminescent Cell Viability Assay kit in the presence of a series of concentration of Pep-MD, 0.1, 0.5 and 2 µM, in serum-free cell culture media. The kit can visualize the number of viable cells as chemiluminescence intensity based on quantitation of the ATP present, an indicator of metabolically active cells. As a positive control, we also evaluated TAT (GRKKRRQRRR in amino acid sequence).
The HeLa cell line was purchased from RIKEN cell bank (Tsukuba, Japan). HeLa cells were cultured in Dulbecco’s Eagle’s medium (DMEM, FUJIFILM Wako Pure Chemical, Japan) supplemented with inactivated 10% fetal bovine serum (FBS, Biosera, France) and 1% penicillin–streptomycin solution (FUJIFILM Wako Pure Chemical).
HeLa cells were seeded at a density of 8000 cells per well in 96 well plate (AGC Techno Glass, Shizuoka, Japan). […] Cell viability of each well was quantified with CellTiter-Glo® Luminescent Cell Viability Assay kit (Promega, Madison, WI, USA) and EnSpire™ microplate reader (PerkinElmer, Waltham, MA, USA) according to manufacturer’s instructions. The cell viability was calculated as the chemiluminescence intensity ratio of samples to that of […] without peptide.

On to GRKKRRQRRR [TAT], for which the “Cell toxicity (HeLa cell viability) at 2.0 µM” value is reported as “significant cell toxicity”.

Turning to YRGWHCRGITKNGIIFDIKW [Pep-MD], the “Cell toxicity (HeLa cell viability) at 2.0 µM” value is given as “little toxicity”.

The values are drawn from paper PMC8137933, “Using molecular dynamics simulations to prioritize and understand AI-generated cell penetrating peptides” (Scientific Reports, 2021).
